Test results taken from US12459932B2, “KIF18A inhibitors” (AMGEN INC., priority 2018, dated 2025).

Target: T1, Recombinant human KIF18A (1-467 His-tagged) (Homo sapiens, UniProt Q8NI77)
T1 construct: Recombinant human KIF18A (1-467 His-tagged) protein; His
Assay: KIF18A Enzyme Assay: microtubule-stimulated ATPase activity (ADP-Glo)
Assay type: biochemical
Settings: 30 nM KIF18A, 30 μg/mL pig microtubules, ATP 75 μM (Km), ADP-Glo luminescence
In short: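 Measures microtubule-stimulated ATPase activity as ADP formed, detected by luminescence. Compounds were tested as 2-fold serial dilutions over 22 points. IC50 values came from four-parameter logistic fits.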

T1 sequence (Q8NI77 1-467): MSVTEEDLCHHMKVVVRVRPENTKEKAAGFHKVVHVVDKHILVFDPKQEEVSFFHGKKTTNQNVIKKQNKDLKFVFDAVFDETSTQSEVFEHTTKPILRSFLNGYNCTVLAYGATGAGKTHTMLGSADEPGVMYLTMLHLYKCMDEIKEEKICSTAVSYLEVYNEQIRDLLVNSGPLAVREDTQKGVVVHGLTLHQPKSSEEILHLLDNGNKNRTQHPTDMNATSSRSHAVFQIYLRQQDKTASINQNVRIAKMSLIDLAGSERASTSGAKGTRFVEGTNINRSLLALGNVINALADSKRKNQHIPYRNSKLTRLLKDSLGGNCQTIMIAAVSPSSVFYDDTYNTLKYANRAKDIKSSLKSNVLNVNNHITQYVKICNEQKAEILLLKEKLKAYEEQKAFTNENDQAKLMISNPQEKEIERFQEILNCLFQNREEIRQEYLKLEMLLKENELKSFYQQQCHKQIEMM
T1 sequence (P02550 whole entry partner): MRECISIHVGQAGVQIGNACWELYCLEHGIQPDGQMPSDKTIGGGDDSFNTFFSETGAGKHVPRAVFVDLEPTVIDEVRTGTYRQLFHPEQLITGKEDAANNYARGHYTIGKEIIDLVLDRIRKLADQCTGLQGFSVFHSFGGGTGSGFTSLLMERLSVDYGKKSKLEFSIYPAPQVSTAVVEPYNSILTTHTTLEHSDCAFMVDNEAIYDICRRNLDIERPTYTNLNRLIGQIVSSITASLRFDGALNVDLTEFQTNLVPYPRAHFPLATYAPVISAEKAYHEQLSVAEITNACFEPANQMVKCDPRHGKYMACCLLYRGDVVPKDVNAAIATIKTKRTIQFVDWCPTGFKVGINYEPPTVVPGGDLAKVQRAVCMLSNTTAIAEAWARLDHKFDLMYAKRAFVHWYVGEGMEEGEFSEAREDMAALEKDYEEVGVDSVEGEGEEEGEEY
T1 sequence (P02554 whole entry partner): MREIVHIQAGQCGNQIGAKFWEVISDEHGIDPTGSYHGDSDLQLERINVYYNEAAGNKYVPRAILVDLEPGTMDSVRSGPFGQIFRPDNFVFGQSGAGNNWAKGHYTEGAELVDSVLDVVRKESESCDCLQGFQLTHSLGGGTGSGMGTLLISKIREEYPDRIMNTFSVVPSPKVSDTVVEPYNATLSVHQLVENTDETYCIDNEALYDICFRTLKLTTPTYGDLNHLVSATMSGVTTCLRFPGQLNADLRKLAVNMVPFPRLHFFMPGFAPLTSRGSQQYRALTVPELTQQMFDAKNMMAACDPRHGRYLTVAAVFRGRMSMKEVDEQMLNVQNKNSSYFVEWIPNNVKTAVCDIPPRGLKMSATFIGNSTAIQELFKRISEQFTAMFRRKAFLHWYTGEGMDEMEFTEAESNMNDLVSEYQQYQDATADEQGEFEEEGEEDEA

Compound	IC50
Cc1cc(NC(=O)c2ccc(NS(=O)(=O)C3(C)CC3)cc2N2CCC3(CC2)CC3)nc(N2CCC(F)(F)CC2)c1 [Example 4-10, N-(6-(4,4-Difluoropiperidin-1-yl)-4-methylpyridin-2-yl)-4-((1-methylcyclopropane)-1-sulfonamido)-2-(6-azaspiro[2.5]octan-6-yl)benzamide]	95 nM
C[C@@H]1CN(c2cccc(NC(=O)c3ccc(S(=O)(=O)NC4(C)COC4)cc3N3CCC4(CC3)CC4)n2)CCO1 [Example 4-11, (R)-N-(6-(2-Methylmorpholino)pyridin-2-yl)-4-(N-(3-methyloxetan-3-yl)sulfamoyl)-2-(6-azaspiro[2.5]octan-6-yl)benzamide]	43 nM
CS(=O)(=O)c1ccc(C(=O)Nc2cccc(N3CCOCC3)n2)c(N2CCC3(CC2)CC3)c1 [Example 4-12, 4-(Methylsulfonyl)-N-(6-morpholinopyridin-2-yl)-2-(6-azaspiro[2.5]octan-6-yl)benzamide]	118 nM
C[C@@H]1CN(c2cccc(NC(=O)c3ccc(S(C)(=O)=O)cc3N3CCC4(CC3)CC4)n2)CCO1 [Example 4-13, (R)-N-(6-(2-Methylmorpholino)pyridin-2-yl)-4-(methylsulfonyl)-2-(6-azaspiro[2.5]octan-6-yl)benzamide]	69 nM
C[C@@H]1CN(c2cccc(NC(=O)c3ccc(NS(=O)(=O)C4(C)CC4)cc3N3CCC4(CC3)CC4)n2)CCO1 [Example 4-14, (R)-4-((1-Methylcyclopropane)-1-sulfonamido)-N-(6-(2-methylmorpholino)pyridin-2-yl)-2-(6-azaspiro[2.5]octan-6-yl)benzamide]	66 nM
C[C@@H]1CN(c2cccc(NC(=O)c3ccc(CS(C)(=O)=O)cc3N3CCC4(CC3)CC4)n2)CCO1 [Example 4-15, (R)-N-(6-(2-Methylmorpholino)pyridin-2-yl)-4-((methylsulfonyl)methyl)-2-(6-azaspiro[2.5]octan-6-yl)benzamide]	85 nM
Cc1cc(NC(=O)c2ccc(CS(C)(=O)=O)cc2N2CCC3(CC2)CC3)nc(N2CCOCC2)c1 [Example 4-16, N-(4-Methyl-6-morpholinopyridin-2-yl)-4-((methylsulfonyl)methyl)-2-(6-azaspiro[2.5]octan-6-yl)benzamide]	145 nM
Cc1cc(NC(=O)c2ccc(NS(=O)(=O)C3(C)CC3)cc2N2CCC3(CC2)CC3)nc(C(C)(C)O)c1 [Example 4-17, N-(6-(2-Hydroxypropan-2-yl)-4-methylpyridin-2-yl)-4-((1-methylcyclopropane)-1-sulfonamido)-2-(6-azaspiro[2.5]octan-6-yl)benzamide]	163 nM
Cc1cc(NC(=O)c2ccc(S(=O)(=O)NC3(C)COC3)cc2N2CCC3(CC2)CC3)nc(C(C)(C)O)c1 [Example 4-18, N-(6-(2-Hydroxypropan-2-yl)-4-methylpyridin-2-yl)-4-(N-(3-methyloxetan-3-yl)sulfamoyl)-2-(6-azaspiro[2.5]octan-6-yl)benzamide]	89 nM
O=C(Nc1cccc(OCCC(F)(F)F)n1)c1ccc(NS(=O)(=O)CCO)cc1N1CCC2(CC1)CC2 [Example 5, 4-((2-Hydroxyethyl)sulfonamido)-2-(6-azaspiro[2.5]octan-6-yl)-N-(6-(3,3,3-trifluoropropoxy)pyridin-2-yl)benzamide]	25 nM
Cc1cc(NC(=O)c2ccc(NS(=O)(=O)CCO)cc2N2CCC3(CC2)CC3)nc(N2CCC(F)(F)CC2)c1 [Example 6, N-(6-(4,4-Difluoropiperidin-1-yl)-4-methylpyridin-2-yl)-4-((2-hydroxyethyl)sulfonamido)-2-(6-azaspiro[2.5]octan-6-yl)benzamide]	47 nM
Cc1cc(NC(=O)c2ccc(NS(=O)(=O)CCO)cc2N2CCC3(CC2)CC3)nc(C2CC(F)(F)C2)c1 [Example 7-1, N-(6-(3,3-Difluorocyclobutyl)-4-methylpyridin-2-yl)-4-((2-hydroxyethyl)sulfonamido)-2-(6-azaspiro[2.5]octan-6-yl)benzamide]	45 nM
C[C@@H]1CN(c2cccc(NC(=O)c3ccc(NS(C)(=O)=O)cc3N3CCC4(CC3)CC4)n2)CCO1 [Example 7-2, (R)-N-(6-(2-Methylmorpholino)pyridin-2-yl)-4-(methylsulfonamido)-2-(6-azaspiro[2.5]octan-6-yl)benzamide]	39 nM
C[C@@H]1CN(c2cccc(NC(=O)c3ccc(N4CCCS4(=O)=O)cc3N3CCC4(CC3)CC4)n2)CCO1 [Example 7-3, (R)-4-(1,1-Dioxidoisothiazolidin-2-yl)-N-(6-(2-methylmorpholino)pyridin-2-yl)-2-(6-azaspiro[2.5]octan-6-yl)benzamide]	76 nM
C[C@@H]1CN(c2cccc(NC(=O)c3ccc(N4CCNS4(=O)=O)cc3N3CCC4(CC3)CC4)n2)CCO1 [Example 7-4, (R)-4-(1,1-Dioxido-1,2,5-thiadiazolidin-2-yl)-N-(6-(2-methylmorpholino)pyridin-2-yl)-2-(6-azaspiro[2.5]octan-6-yl)benzamide]	287 nM
C[C@@H]1CN(c2cccc(NC(=O)c3ccc(NS(=O)(=O)N(C)C)cc3N3CCC4(CC3)CC4)n2)CCO1 [Example 7-5, (R)-4-((N,N-Dimethylsulfamoyl)amino)-N-(6-(2-methylmorpholino)pyridin-2-yl)-2-(6-azaspiro[2.5]octan-6-yl)benzamide]	55 nM
C[C@@H]1CN(c2cccc(NC(=O)c3ccc(N4CCS4(=O)=O)cc3N3CCC4(CC3)CC4)n2)CCO1 [Example 7-6, (R)-4-(1,1-Dioxido-1,2-thiazetidin-2-yl)-N-(6-(2-methylmorpholino)pyridin-2-yl)-2-(6-azaspiro[2.5]octan-6-yl)benzamide]	98 nM
C[C@@H]1CN(c2cccc(NC(=O)c3ccc(NS(=O)(=O)C(F)F)cc3N3CCC4(CC3)CC4)n2)CCO1 [Example 7-7, (R)-4-((Difluoromethyl)sulfonamido)-N-(6-(2-methylmorpholino)pyridin-2-yl)-2-(6-azaspiro[2.5]octan-6-yl)benzamide]	49 nM
CCS(=O)(=O)Nc1ccc(C(=O)Nc2cc(C)cc(N3CCO[C@H](C)C3)n2)c(N2CCC3(CC2)CC3)c1 [Example 7-8, (R)-4-(Ethylsulfonamido)-N-(4-methyl-6-(2-methylmorpholino)pyridin-2-yl)-2-(6-azaspiro[2.5]octan-6-yl)benzamide]	72 nM
C[C@@H]1CN(c2cccc(NC(=O)c3ccc(NS(=O)(=O)C4CCC4)cc3N3CCC4(CC3)CC4)n2)CCO1 [Example 7-9, (R)-4-(Cyclobutanesulfonamido)-N-(6-(2-methylmorpholino)pyridin-2-yl)-2-(6-azaspiro[2.5]octan-6-yl)benzamide]	62 nM
C[C@@H]1CN(c2cccc(NC(=O)c3ccc(NS(=O)(=O)C4COC4)cc3N3CCC4(CC3)CC4)n2)CCO1 [Example 7-10, (R)-N-(6-(2-Methylmorpholino)pyridin-2-yl)-4-(oxetane-3-sulfonamido)-2-(6-azaspiro[2.5]octan-6-yl)benzamide]	63 nM
Cc1cc(NC(=O)c2ccc(NS(=O)(=O)C3COC3)cc2N2CCC3(CC2)CC3)nc(N2CCC(F)(F)CC2)c1 [Example 7-11, N-(6-(4,4-Difluoropiperidin-1-yl)-4-methylpyridin-2-yl)-4-(oxetane-3-sulfonamido)-2-(6-azaspiro[2.5]octan-6-yl)benzamide]	81 nM
C[C@@H]1CN(c2cccc(NC(=O)c3ccc(NS(=O)(=O)CCO)cc3N3CCC4(CC3)CC4)n2)CCO1 [Example 7-12, (R)-4-((2-Hydroxyethyl)sulfonamido)-N-(6-(2-methylmorpholino)pyridin-2-yl)-2-(6-azaspiro[2.5]octan-6-yl)benzamide]	30 nM
C[C@H]1CN(c2cccc(NC(=O)c3ccc(NS(=O)(=O)CCO)cc3N3CCC4(CC3)CC4)n2)CCO1 [Example 7-13, (S)-4-((2-Hydroxyethyl)sulfonamido)-N-(6-(2-methylmorpholino)pyridin-2-yl)-2-(6-azaspiro[2.5]octan-6-yl)benzamide]	46 nM
C[C@@H]1CN(c2cccc(NC(=O)c3ccc(NS(=O)(=O)CCC(F)(F)F)cc3N3CCC4(CC3)CC4)n2)CCO1 [Example 7-14, (R)-N-(6-(2-Methylmorpholino)pyridin-2-yl)-2-(6-azaspiro[2.5]octan-6-yl)-4-((3,3,3-trifluoropropyl)sulfonamido)benzamide]	343 nM
C[C@@H]1CN(c2cccc(NC(=O)c3ccc(NS(=O)(=O)C4(F)CC4)cc3N3CCC4(CC3)CC4)n2)CCO1 [Example 7-15, (R)-4-((1-Fluorocyclopropane)-1-sulfonamido)-N-(6-(2-methylmorpholino)pyridin-2-yl)-2-(6-azaspiro[2.5]octan-6-yl)benzamide]	90 nM
C[C@@H]1CN(c2cccc(NC(=O)c3ccc(NS(=O)(=O)C(C)(C)C)cc3N3CCC4(CC3)CC4)n2)CCO1 [Example 7-16, (R)-4-((1,1-Dimethylethyl)sulfonamido)-N-(6-(2-methylmorpholino)pyridin-2-yl)-2-(6-azaspiro[2.5]octan-6-yl)benzamide]	67 nM
Cc1cc(NC(=O)c2ccc(NS(=O)(=O)CCO)cc2N2CCC3(CC2)CC3)nc(N2CCOCC2)c1 [Example 7-17, 4-((2-Hydroxyethyl)sulfonamido)-N-(4-methyl-6-morpholinopyridin-2-yl)-2-(6-azaspiro[2.5]octan-6-yl)benzamide]	17 nM
Cc1cc(NC(=O)c2ccc(NS(=O)(=O)CCO)cc2N2CCC3(CC2)CC3)nc(N2CCO[C@H](C)C2)c1 [Example 7-18, (R)-4-((2-Hydroxyethyl)sulfonamido)-N-(4-methyl-6-(2-methylmorpholino)pyridin-2-yl)-2-(6-azaspiro[2.5]octan-6-yl)benzamide]	74 nM
Cc1cc(NC(=O)c2ccc(NS(=O)(=O)CCO)cc2N2CCC3(CC2)CC3)nc(N2CCO[C@@H](C)C2)c1 [Example 7-19, (S)-4-((2-Hydroxyethyl)sulfonamido)-N-(4-methyl-6-(2-methylmorpholino)pyridin-2-yl)-2-(6-azaspiro[2.5]octan-6-yl)benzamide]	49 nM
